In one data set the test system is brachial artery. The data set can be described thus: Study 2: brachial artery flow-mediated and nitroglycerin-mediated vasodilation. In kind it is in vivo, human. As to the method:
Brachial artery endothelium-dependent and -independent function was measured using ultrasound, at baseline, after 8 weeks of BH4 treatment, and 1 week after discontinuation of therapy. The technique was carried out as described in Prasad et al., Circulation, 2000. 101(20): p. 2349-54. Briefly, using an 11 MHz high resolution ultrasound transducer (Acuson Inc) in a temperature-controlled room, brachial diameter was measured above the antecubital fossa in the non-dominant arm. Flow-mediated vasodilation (FMD) was measured by inflating a BP cuff on the forearm to >200 mm Hg for 5 minutes, deflating rapidly, and measuring brachial diameter at 1 minute after onset of hyperemia. For all measurements three diameters were measured on three separate end-diastolic frames and averaged. To obtain the maximal brachial artery dilation that represents FMD the following equation was used: (average diameter with hyperemia−average baseline diameter)÷average baseline diameter X 100. To measure the endothelium-independent vasodilator response, subjects were given sublingual nitroglycerin 0.4 mg and the brachial diameter was measured as above after 5 minutes. To obtain endothelium-independent vasodilation the following equation was used: (average diameter post nitroglycerin-average baseline diameter)÷average baseline diameter X 100. For both study 1 and study 2, the primary end point after statistical analysis was a reduction of systolic, mean and diastolic BP during BH4 therapy. Secondary end points included improvement of endothelial function as FMD. Linear mixed effects models for repeated measures data were used to analyze change in BP from baseline to end of treatment period and differences in change between 100 mg and 200 mg dose groups. A quadratic term for week was included in the model to account for non-linear trends over the treatment period. Dose, week and week squared were the main effect terms in the model; dose by week and dose by week squared were the interaction terms in the model. Significant interaction terms indicate a difference in the pattern of change between the two dose groups. FMD data was analyzed using the two-tailed student t-test. […] In study 2, brachial artery endothelium-dependent and independent function was measured, as described above, at the end of the 2-week vitamin C run-in period, at the end of 4 weeks of oral BH4 therapy, and 4 weeks after discontinuation of BH4.

The subject of a further data set is hypertensive patients. The data set is described as follows: Adverse events in Study 1 and Study 2 of oral BH4. In kind it is in vivo, human. Conditions: either study. The text has this:
Subjects between the ages of 18 and 75 years were recruited if they had uncontrolled hypertension on traditional stable anti-hypertensive therapy (BP≧135/85), or newly diagnosed hypertension (BP≧140/90). Patients were continued on their current anti-hypertensive therapy which remained unchanged. The criteria for exclusion were: female subjects with childbearing potential, history of recently symptomatic coronary or peripheral vascular disease, known secondary causes for hypertension, severe uncontrolled hypertension (BP>180 mmHg systolic and/or 110 mmHg diastolic), severe co-morbid conditions which would limit life expectancy to less than 6 months, renal or hepatic dysfunction, alteration of any concomitant anti-hypertensive therapy within the last 6 weeks, and any bleeding disorders. BH4 powder was obtained from Schircks Laboratories (Jona, Switzerland). BH4 when administered with vitamin C was compounded with vitamin C at a ratio of 1 mg of vitamin C/1 mg BH4 into appropriate sized capsules. Subjects were advised to keep the pills in a freezer or refrigerator.
Of the 20 subjects who qualified for participation, 4 were excluded during the run-in phase because of inability to return for follow-up appointments. There were 6 male subjects, mean age 59.5±8.3 years. […] Mean blood pressure was calculated as: (SBP+2×DBP)/3. […]

A further data set has as its system cardiac allograft. Conditions: cited from earlier work.
For data set [1] the following is noted: patients with Type II diabetes and coronary heart disease compared to control subjects; cited from earlier work.
Data set [2] deals with coronary blood flow velocity. Conditions: BH4 infused during angiography, patients with endothelial dysfunction; cited from earlier work.

The source of these data is US20090018136A1, “METHODS AND COMPOSITIONS FOR THE TREATMENT OF VASCULAR DISEASE” (priority 2005, published 2009).

Take `C[C@H](O)[C@H](O)[C@H]1CNc2nc(N)[nH]c(=O)c2N1` [BH4, tetrahydrobiopterin]: the FMD is 6.2±3.5% with brachial artery (Study 2, 100 mg b.i.d., after therapy, 5.3±2.5% before, p=0.55, no significant change); 7.1±4.9% with brachial artery (Study 2, 200 mg b.i.d., after 4 weeks of therapy, 3.7±3% at start, p=0.016, n=7); 3.2±1.1% with brachial artery (Study 2, 200 mg b.i.d., one month after discontinuation, p=0.6 compared to baseline). Besides, in the data set on brachial artery (Study 2, either group), the “change in nitroglycerin-mediated, endothelium-independent vasodilation” value is recorded as “no significant change”. The adverse events result in the data set on hypertensive patients was “no significant adverse events”. Further, the “mean graft survival time” value in the data set with cardiac allograft (BH4 50 mg/kg every 8 hours intramuscularly for 7 days, untreated allografts 7.1±0.7 days, p<0.05) was 12.3 ± 4.9 days. Moreover, the allograft survival entry with cardiac allograft (allogeneic mouse heart transplantation) is recorded as “significantly prolonged”. The “Nitrate and nitrite concentrations in plasma” value in the data set with cardiac allograft (day 6, also elevated in untreated animals) was “elevated”. The insulin sensitivity result in data set [1] is reported as “increases”. In addition, the “abnormal vasoconstriction to acetylcholine” value in data set [2] is recorded as “prevented”.
